In ChEMBL document CHEMBL1909046, “DrugMatrix in vitro pharmacology data”:

Key:
[1] = DRUGMATRIX: Serotonin (5-Hydroxytryptamine) 5-HT3 radioligand binding (ligand: [3H] GR-65630); type: cell membranes, Membrane; conditions: hek293; Not Active = under 50% inhibition at 10 µM
[2] = biological target: Substance-P receptor (Homo sapiens, UniProt P25103); type: cell membranes, Membrane; conditions: cho; further: in other assays of this panel Not Active means under 50% inhibition at 10 µM
[3] = biological target: Sodium-dependent dopamine transporter (Homo sapiens, UniProt Q01959); assay: DRUGMATRIX: Dopamine Transporter radioligand binding (ligand: [125I] RTI-55); type: cell membranes, CHO-K1, Membrane; conditions: Not Active = under 50% inhibition at 10 µM
[4] = DRUGMATRIX: GABAA, Chloride Channel, TBOB radioligand binding (ligand: [3H] TBOB); type: cell membranes, Rattus norvegicus, Wistar, Cerebral cortex, Membrane; conditions: Not Active = under 50% inhibition at 10 µM
[5] = biological target: Protein kinase C alpha type (Homo sapiens, UniProt P17252); type: cell-based; conditions: sf9;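 further: inhibition of PKCalpha kinase activity measured in an enzyme assay with histone as the phosphorylation substrate; in other assays of this panel Not Active means under 50% inhibition at 10 µM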
[6] = biological target: Mitogen-activated protein kinase 3 (Homo sapiens, UniProt P27361); assay: DRUGMATRIX: Protein Serine/Threonine Kinase, ERK1 enzyme inhibition (substrate: Myelin Basic Protein); parameters: species or system Escherichia coli; conditions: Not Active = under 50% inhibition at 10 µM
[7] = biological target: Cytochrome P450 2C19 (Homo sapiens, UniProt P33261); conditions: bti-tn-5b1-4; further: in other assays of this panel Not Active means under 50% inhibition at 10 µM
Cytochrome P450 2C19, sequence (P33261 whole entry): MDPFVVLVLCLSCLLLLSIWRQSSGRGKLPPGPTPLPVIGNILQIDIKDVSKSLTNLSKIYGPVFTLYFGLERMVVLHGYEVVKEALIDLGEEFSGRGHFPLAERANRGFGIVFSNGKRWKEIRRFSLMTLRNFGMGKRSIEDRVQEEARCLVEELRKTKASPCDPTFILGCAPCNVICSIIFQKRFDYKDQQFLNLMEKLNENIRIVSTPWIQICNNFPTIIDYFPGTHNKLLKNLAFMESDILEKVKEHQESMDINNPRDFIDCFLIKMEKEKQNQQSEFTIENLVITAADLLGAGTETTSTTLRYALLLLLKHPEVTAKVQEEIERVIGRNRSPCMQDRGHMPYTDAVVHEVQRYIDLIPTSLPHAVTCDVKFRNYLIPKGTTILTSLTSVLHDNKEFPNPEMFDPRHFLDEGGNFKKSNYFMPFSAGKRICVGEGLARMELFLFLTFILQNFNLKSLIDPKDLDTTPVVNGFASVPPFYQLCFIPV

Substance-P receptor, sequence (P25103 whole entry): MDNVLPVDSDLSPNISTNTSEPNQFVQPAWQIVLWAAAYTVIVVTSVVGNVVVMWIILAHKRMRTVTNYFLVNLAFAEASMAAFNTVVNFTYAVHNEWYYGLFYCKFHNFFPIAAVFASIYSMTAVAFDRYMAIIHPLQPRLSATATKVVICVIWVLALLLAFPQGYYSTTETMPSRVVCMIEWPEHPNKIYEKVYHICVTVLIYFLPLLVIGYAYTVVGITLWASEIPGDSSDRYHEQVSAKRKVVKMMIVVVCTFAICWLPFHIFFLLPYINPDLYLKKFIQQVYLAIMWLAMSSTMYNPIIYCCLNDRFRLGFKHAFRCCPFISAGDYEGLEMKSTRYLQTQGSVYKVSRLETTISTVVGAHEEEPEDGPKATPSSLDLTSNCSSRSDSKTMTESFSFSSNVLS
Sodium-dependent dopamine transporter, sequence (Q01959 whole entry): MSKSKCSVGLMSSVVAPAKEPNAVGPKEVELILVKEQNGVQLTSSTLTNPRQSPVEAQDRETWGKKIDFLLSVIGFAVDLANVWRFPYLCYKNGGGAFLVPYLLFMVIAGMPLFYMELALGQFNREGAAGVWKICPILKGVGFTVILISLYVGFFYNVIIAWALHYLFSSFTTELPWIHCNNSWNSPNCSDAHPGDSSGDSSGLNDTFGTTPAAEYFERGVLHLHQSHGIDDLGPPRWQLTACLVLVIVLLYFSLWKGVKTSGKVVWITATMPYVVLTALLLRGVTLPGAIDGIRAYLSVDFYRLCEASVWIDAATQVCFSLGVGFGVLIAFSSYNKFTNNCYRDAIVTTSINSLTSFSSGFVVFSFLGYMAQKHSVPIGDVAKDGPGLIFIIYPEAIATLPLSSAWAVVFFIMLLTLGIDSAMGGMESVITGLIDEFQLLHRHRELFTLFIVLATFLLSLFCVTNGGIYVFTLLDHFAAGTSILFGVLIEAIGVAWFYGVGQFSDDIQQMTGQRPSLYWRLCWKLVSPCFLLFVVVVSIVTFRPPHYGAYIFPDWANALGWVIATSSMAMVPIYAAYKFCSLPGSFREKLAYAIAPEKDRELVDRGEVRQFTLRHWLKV
Mitogen-activated protein kinase 3, sequence (P27361 whole entry): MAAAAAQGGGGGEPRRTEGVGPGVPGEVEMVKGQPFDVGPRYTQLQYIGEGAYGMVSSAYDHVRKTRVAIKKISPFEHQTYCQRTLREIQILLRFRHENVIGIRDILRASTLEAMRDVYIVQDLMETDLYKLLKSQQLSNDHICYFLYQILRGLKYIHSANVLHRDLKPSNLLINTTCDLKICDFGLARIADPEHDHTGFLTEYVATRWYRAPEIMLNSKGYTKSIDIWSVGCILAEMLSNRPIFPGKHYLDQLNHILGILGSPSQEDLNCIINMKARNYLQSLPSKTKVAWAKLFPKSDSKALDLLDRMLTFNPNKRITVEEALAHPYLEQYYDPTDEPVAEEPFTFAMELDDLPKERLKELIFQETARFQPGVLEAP

Compound | IC50 [1] | Ki [1] | IC50 [2] | IC50 ([3]; cho-k1) | IC50 [4] | Ki [4] | IC50 [5] | IC50 [6] | IC50 [7] | Ki [7] | Ki [2] | Ki ([3]; cho-k1) | Ki [5] | Ki [6] | IC50 ([3]; read-out: IC50) | Ki ([3]; read-out: Ki)
COC(=O)C[C@](O)(CCC(C)(C)O)C(=O)O[C@@H]1C(OC)=C[C@]23CCCN2CCc2cc4c(cc2[C@H]13)OCO4 [HARRINGTONINE] | Not Active | Not Active | Not Active | Not Active | Not Active | Not Active | Not Active | Not Active | Not Active | Not Active |  |  |  |  |  | 
CHROMIC CHLORIDE | Not Active | Not Active | Not Active | Not Active | Not Active | Not Active | Not Active | Not Active | Not Active | Not Active | Not Active | Not Active | Not Active | Not Active |  | 
C#C[C@]1(O)CC[C@H]2[C@@H]3CCC4=CC(=O)CC[C@@H]4[C@H]3CC[C@@]21C [NORETHINDRONE] | Not Active | Not Active | Not Active | Not Active | Not Active | Not Active | Not Active | Not Active | Not Active | Not Active |  |  |  |  |  | 
O=C1CN(/N=C/c2ccc([N+](=O)[O-])o2)C(=O)N1 [NITROFURANTOIN] | Not Active | Not Active | Not Active | Not Active | Not Active | Not Active | Not Active | Not Active | Not Active | Not Active |  |  |  |  |  | 
c1ccc2c(c1)Nc1ccccc1S2 [PHENOTHIAZINE] | Not Active | Not Active | Not Active |  | Not Active | Not Active | Not Active | Not Active | Not Active | Not Active |  |  |  |  | 18.6 µM | 14.8 µM
CC(CN1c2ccccc2Sc2ccccc21)N(C)C (stereo not given) [PROMETHAZINE] | Not Active | Not Active | Not Active | Not Active | Not Active | Not Active | Not Active | Not Active | Not Active | Not Active |  |  |  |  |  | 
c1ccc(Cn2ccnc2)cc1 | Not Active | Not Active | Not Active | Not Active | Not Active | Not Active | Not Active | Not Active | Not Active | Not Active |  |  |  |  |  | 
CC(C)Cn1cnc2c(N)nc3ccccc3c21 [IMIQUIMOD] | Not Active | Not Active | Not Active | Not Active | Not Active | Not Active | Not Active | Not Active | Not Active | Not Active |  |  |  |  |  | 
OC[C@H]1OC2C3[C@@H](CO)OC(O[C@H]4[C@H](O)[C@@H](O)[C@@H](O[C@H]5[C@H](O)[C@@H](O)[C@@H](O[C@H]6[C@H](O)[C@@H](O)[C@@H](O[C@H]7[C@H](O)[C@@H](O)[C@@H](O[C@H]8[C@H](O)[C@@H](O)[C@@H](O[C@H]9[C@H](O)[C@@H](O)C(OC1[C@H](O)[C@H]2O)O[C@@H]9CO)O[C@@H]8CO)O[C@@H]7CO)O[C@@H]6CO)O[C@@H]5CO)O[C@@H]4CO)[C@H](O)[C@H]3O | Not Active | Not Active | Not Active | Not Active | Not Active | Not Active | Not Active | Not Active | Not Active | Not Active |  |  |  |  |  | 
COc1cc(/C=C/C(=O)O)ccc1O [FERULATE] | Not Active | Not Active | Not Active | Not Active | Not Active | Not Active | Not Active | Not Active | Not Active | Not Active |  |  |  |  |  | 
CCN1C[C@]2(COC)[C@H](O)C[C@H](OC)[C@@]34[C@@H]5C[C@@]6(O)[C@H](OC(=O)c7ccccc7)[C@@H]5[C@@](OC(C)=O)([C@@H]([C@H](OC)[C@H]23)[C@@H]14)[C@@H](O)[C@@H]6OC [ACONITINE] | Not Active | Not Active | Not Active | Not Active | Not Active | Not Active | Not Active | Not Active | Not Active | Not Active |  |  |  |  |  | 
CO[C@H]1O[C@@H]2O[C@@]3(C)CC[C@H]4[C@H](C)CC[C@@H]([C@H]1C)[C@@]24OO3 | Not Active | Not Active | Not Active | Not Active | Not Active | Not Active | Not Active | Not Active | Not Active | Not Active |  |  |  |  |  | 
Oc1ncnc2[nH]ncc12 [ALLOPURINOL] | Not Active | Not Active | Not Active | Not Active | Not Active | Not Active | Not Active | Not Active | Not Active | Not Active |  |  |  |  |  | 
NC(=O)CN1CCCC1=O | Not Active | Not Active | Not Active | Not Active | Not Active | Not Active | Not Active | Not Active | Not Active | Not Active |  |  |  |  |  | 
POVIDONE | Not Active | Not Active | Not Active | Not Active | Not Active | Not Active | Not Active | Not Active | Not Active | Not Active | Not Active | Not Active | Not Active | Not Active |  | 
Cc1c(N)nc([C@H](CC(N)=O)NC[C@H](N)C(N)=O)nc1C(=O)N[C@H](C(=O)N[C@H](C)[C@@H](O)[C@H](C)C(=O)N[C@H](C(=O)NCCc1nc(-c2nc(C(=O)NCCC[S+](C)C)cs2)cs1)[C@@H](C)O)[C@@H](O[C@@H]1O[C@@H](CO)[C@@H](O)[C@H](O)[C@@H]1O[C@H]1O[C@H](CO)[C@@H](O)[C@H](OC(N)=O)[C@@H]1O)c1c[nH]cn1.[Br-] [BLEOMYCIN A2] | Not Active | Not Active | Not Active | Not Active | Not Active | Not Active | Not Active | Not Active | Not Active | Not Active |  |  |  |  |  | 
Nc1ccc(Cc2ccc(N)cc2)cc1 | Not Active | Not Active | Not Active | Not Active | Not Active | Not Active | Not Active | Not Active | Not Active | Not Active |  |  |  |  |  | 
C[C@]12CC[C@@H](O)C[C@@H]1CC[C@@H]1[C@@H]2CC[C@]2(C)C(=O)CC[C@@H]12 [ANDROSTERONE] | Not Active | Not Active | Not Active | Not Active | Not Active | Not Active | Not Active | Not Active | Not Active | Not Active |  |  |  |  |  | 
O=C(O)c1ccccc1 [BENZOIC ACID] | Not Active | Not Active | Not Active | Not Active | Not Active | Not Active | Not Active | Not Active | Not Active | Not Active |  |  |  |  |  | 
CC(=O)Nc1ccc2c(c1)Cc1ccccc1-2 [2-ACETYLAMINOFLUORENE] | Not Active | Not Active | Not Active | Not Active | Not Active | Not Active | Not Active | Not Active | Not Active | Not Active |  |  |  |  |  | 
C[C@H](C(=O)O)c1ccc2oc(-c3ccc(F)cc3)nc2c1 [FLUNOXAPROFEN] | Not Active | Not Active | Not Active | Not Active | Not Active | Not Active | Not Active | Not Active | Not Active | Not Active |  |  |  |  |  | 
CN(CCOc1ccc(C[C@H](Nc2ccccc2C(=O)c2ccccc2)C(=O)O)cc1)c1ccccn1 | Not Active | Not Active | Not Active |  | Not Active | Not Active | Not Active | Not Active | Not Active | Not Active |  |  |  |  | 13.6 µM | 10.8 µM
CCN1CCN(c2cc3c(cc2F)c(=O)c(C(=O)O)cn3C2CC2)CC1 [ENROFLOXACIN] | Not Active | Not Active | Not Active | Not Active | Not Active | Not Active | Not Active | Not Active | Not Active | Not Active |  |  |  |  |  | 
C[N+](C)(C)CCOP(=O)([O-])OC[C@H](O)CO | Not Active | Not Active | Not Active | Not Active | Not Active | Not Active | Not Active | Not Active | Not Active | Not Active |  |  |  |  |  | 
O=C(Nc1ccc(Cl)c(Cl)c1)c1cc(Cl)cc(Cl)c1O [3,3',4',5-TETRACHLOROSALICYLANILIDE] | Not Active | Not Active | Not Active | Not Active | Not Active | Not Active | Not Active | Not Active | Not Active | Not Active |  |  |  |  |  | 
O=C(O)COC(=O)Cc1ccccc1Nc1c(Cl)cccc1Cl [ACECLOFENAC] | Not Active | Not Active | Not Active | Not Active | Not Active | Not Active | Not Active | Not Active | Not Active | Not Active |  |  |  |  |  | 
